Assay results from US8183210B2, “Reconstituted surfactants having improved properties” (Chiesi Farmaceutici S.p.A., priority 2006, dated 2012).
Bridge positions count the residues as written; N and C are the ends. Ends that are not written are not given here.

System: premature newborn rabbits
Test: Surfactant preparations in ventilated premature newborn rabbits without PEEP (model of RDS): lung gas volumes and tidal volumes
Type: in vivo, rabbit
Details: no PEEP; for lung gas volumes (median): reconstituted surfactant, 2% w/w of each named peptide in DPPC:POPG 68:31 w/w, 80 mg/ml, 2.5 ml/kg at birth, FIG. 3
Method: The surfactant preparations were assayed in premature newborn rabbits, obtained by hysterectomy at the gestational age of 27 days. The experiments were performed without applying a positive end expiratory pressure (PEEP). As the SP-C analog, the polypeptide referred to as SP-C33 was used which was prepared according to Example 1. As the analog of the protein SP-B, oxidized Mini-B (ox Mini-B) was used which was prepared according to Example 2.
The animals were treated at birth with reconstituted surfactant preparations containing, as lipid carrier, the phospholipid mixture DPPC:POPG in the ratio 68:31 w/w. The phospholipids were mixed with 2 or 4% w/w SPC-33, 2% w/w ox Mini-B, or 2% w/w SPC-33 plus 2% w/w ox Mini-B. Animals receiving the same dose of Curosurf® served as positive controls, and non-treated littermates served as negative controls. All surfactant preparations were administered at a concentration of 80 mg/ml and at a standard dose of 2.5 ml/kg.
The immature newborn rabbits were ventilated in parallel with a standardized sequence of peak insufflation pressures. To open up the lungs, pressure was first set at 35 cmH2O for 1 minute. After this recruitment manoeuvre, pressure was lowered to 25 cmH2O for 15 minutes and further on to 20 and 15 cm H2O. Finally, the pressure was raised again to 25 cmH2O for 5 minutes, after which the lungs were ventilated for additional 5 minutes with nitrogen and then excised for gas volume measurements. Both lung gas volumes and tidal volumes expressed as ml/kg were measured, and the results, given as median values, are reported in FIGS. 3 and 4, respectively.

Sequence: CWLCRALIKRIQAMIPKGGRMLPQLVCRLVLRCS (disulfide 1-33, 4-27) [ox Mini-B, SP-B analog]
- lung gas volumes (median): about 2 ml/kg

Sequence: IPSSPVHLKRLKLLLLLLLLILLLILGALLMGL [SP-C33]
- lung gas volumes, effect of increasing SP-C33 content (SP-C33 content raised from 2 to 4% w/w in DPPC:POPG 68:31): did not increase lung gas volumes
- lung gas volumes (median): about 4 ml/kg
